Laboratory results reported in US20250375471A1, “HEPARANASE INHIBITORS AND METHODS OF USE” (The Board of Regents of the University of Oklahoma, priority 2022, published 2025).
Entries after “also recorded” stand apart in the source; their conditions may differ.

Experiments:
[1] = target: T1, Recombinant human heparanase (Homo sapiens, UniProt Q9Y251); experiment: Gel-based heparanase enzyme inhibition assay, fluorescent synthetic O-sulfated heparosan substrate; format: biochemical
T1 construct: purchased R&D Systems; Minneapolis, MN
T1 sequence (Q9Y251 158-543 limits assumed): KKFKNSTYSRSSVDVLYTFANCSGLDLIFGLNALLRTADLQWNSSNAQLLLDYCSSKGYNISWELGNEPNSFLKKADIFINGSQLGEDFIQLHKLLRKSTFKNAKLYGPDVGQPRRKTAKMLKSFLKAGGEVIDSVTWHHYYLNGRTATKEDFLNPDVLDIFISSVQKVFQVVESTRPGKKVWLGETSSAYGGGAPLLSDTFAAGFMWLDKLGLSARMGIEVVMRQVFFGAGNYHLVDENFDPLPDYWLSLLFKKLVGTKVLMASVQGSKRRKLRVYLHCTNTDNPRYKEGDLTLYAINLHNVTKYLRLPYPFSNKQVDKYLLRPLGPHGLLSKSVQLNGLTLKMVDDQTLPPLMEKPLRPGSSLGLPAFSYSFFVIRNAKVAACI
T1 sequence (Q9Y251 36-109 limits assumed): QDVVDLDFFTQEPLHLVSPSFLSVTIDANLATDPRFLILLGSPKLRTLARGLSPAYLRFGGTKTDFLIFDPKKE
Source text: (§1) A gel-based assay was used to monitor the catalytic action of recombinant human heparanase (R&D Systems; Minneapolis, MN) on polysaccharide substrates. In these assays, fluorescent chains were monitored for cleavage; the disappearance of the parental substrate band is readily noticeable. Each chain contains multiple, overlapping heparanase cut sites so there is a gradual decrease in molecular weight over time. This simple, defined assay directly monitors the digestion of polysaccharides (i.e., glycans>˜20 monosaccharide units) that approximate naturally occurring substrates.
(§2) Two types of substrates were employed to follow heparanase activity: (i) a fluorescein end-labeled synthetic O-sulfated O-linked heparosan or (ii) polyacrylamide gel electrophoretically-purified rhodamine-tagged HS. Heparanase (1.3 ng/μl final) was incubated with substrate (synthetic, 57 ng/μl; HS, 3.3 ng/μl) for various times (typically ˜0.2-5 h) in 50 mM sodium acetate, pH 5, 1 mg/ml acetylated bovine serum albumin (Promega; Madison, WI) at 30° C. Aliquots of reactions were analyzed by polyacrylamide gel electrophoresis (2 μl of reaction/lane; 20% gels, 1×TBE) and fluorescence imaging (5-120 sec exposures; ChemiDoc MP). Then the overall size range of the polysaccharide fragments was followed by Stains-All detection.

[2] = target: T1, Recombinant human heparanase; experiment: Gel-based heparanase enzyme inhibition assay, natural heparan sulfate (HS) substrate; format: biochemical; conditions: various substrate to inhibitor ratios, 30 min time-point
Source text: as §1, §2

[3] = target: T1, Recombinant human heparanase; experiment: Heparanase challenge (PAGE, Stains-All detection); format: biochemical; conditions: heparanase 73 ng, sTestan 180 ng, 24 hours, pH 5, 30° C.
Procedure: The reactions were analyzed by polyacrylamide gel electrophoresis (20% gels, 1×TBE) and Stains-All detection.

[4] = target: T2, HIT antibody complex (Platelet Factor 4 and antibody) (Homo sapiens, UniProt P02776)
T2 sequence (P02776 32-101): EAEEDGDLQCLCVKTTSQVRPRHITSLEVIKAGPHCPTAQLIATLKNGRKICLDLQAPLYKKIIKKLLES
Procedure: ELISA methodology was used to measure the bound antibody as measured by absorbance (at 415 nm) of the product derived from a chromogenic substrate by the enzyme on the secondary antibody probe. […] Heparin derivatives treated to reduce their anticoagulant activity (non-anticoagulant heparin (NACH) or Roneparstat (Rone)) were also tested in the HIT assay.

[5] = background; cited from earlier work

sulfated or sulfonated testosteronan [sTestan]
fold more active on a molar basis than the heparosan substrate [1]: ≥ 100 fold
heparanase inhibitor potency compared with generic Roneparstat ([1]; FIG. 7): similarly potent; also recorded: potent competitive inhibitor of human heparanase similar to a known heparanase inhibitor
inhibition of heparanase cleavage of fluorescent sulfo-O-linked heparosan substrate ([1]; titration of inhibitor, 15-min time point, PAGE): inhibited the digestion of the substrate; also recorded: competitive inhibitor of heparanase
inhibition of heparanase digestion of natural HS substrate [2]: protecting natural HS from human heparanase digestion
digestion/cleavage by human heparanase [3]: recalcitrant to the action of heparanase; also recorded: recalcitrant to digestion by heparanase

Roneparstat
HIT complex reactivity (competition with plate-bound heparin) [4]: less reactive

heparin
HIT complex reactivity (competition with plate-bound heparin) [4]: competed well

CC(C)CCC[C@@H](C)[C@H]1CC[C@H]2[C@@H]3CC[C@H]4C[C@@H](O[C@@H]5O[C@H](COS(=O)(=O)O)[C@@H](O[C@H]6O[C@H](COS(=O)(=O)O)[C@@H](O[C@H]7O[C@H](COS(=O)(=O)O)[C@@H](O[C@H]8O[C@H](COS(=O)(=O)O)[C@@H](OS(=O)(=O)O)[C@H](OS(=O)(=O)O)[C@H]8OS(=O)(=O)O)[C@H](OS(=O)(=O)O)[C@H]7OS(=O)(=O)O)[C@H](OS(=O)(=O)O)[C@H]6OS(=O)(=O)O)[C@H](OS(=O)(=O)O)[C@H]5OS(=O)(=O)O)CC[C@]4(C)[C@H]3CC[C@]12C [PG545]
cell toxicity [5]: lacks significant anticoagulant activity and cell toxicity
